{"source": "patent US20070292489A1", "about": "“METHOD FOR TREATMENT OF WOUND TREATMENT USING AGANOCIDES” (priority 2006, published 2007)", "system": "human secondary intention wound", "assay": "Vacuum-assisted wound treatment combined with intermittent aganocide instillation", "format": "in vivo", "settings": "pH about 4, 0.9% NaCl, 2-hour pumping at 125 mm Hg", "description": "A human secondary intention wound approximately 3-4 cm in diameter is fitted with a polyurethane sponge, pore size 400-600 microns cut to the size of the wound and twice the thickness of the wound and covered with an adhesive film, per instructions on the vacuum system. The outlet is connected to an IV bag (500 ml) with a 0.1% sodium 2-dichloroamino-2-methylpropanesulfonate solution adjusted with HCl to a pH of about 4, 0.9% NaCl and elevated to between 0.1 and 1 meter above the wound. A 1-cm hole is punctured in the adhesive film, and a second adhesive film is used to cover the hole, with the second outlet connected to the vacuum pump.\nEach cycle consists of three phases: a 2-hour pumping phase when the vacuum (125 mm Hg negative pressure) is connected and the IV bag is disconnected; a 1 second instilling phase when the vacuum is disconnected and the IV bag is connected and the aganoocide is applied to the wound; and a 1 minute holding phase when both vacuum and the IV bag are disconnected.\nEach treatment has about 24 cycles and starts with a pumping phase and proceeds for 48 hours. When the treatment is completed, the dressings are changed and the treatment is repeated until full granulation has been promoted and the granulation tissue is within the level of the skin, approximately 30 to 100 days, depending on the depth of the original wound. […]"}
{"smiles": "CC(C)(CS(=O)(=O)[O-])N(Cl)Cl.[Na+]", "note": "[Sodium 2-dichloroamino-2-methylpropanesulfonate]", "values": [{"measurement": "wound healing results of the combination treatment regimen compared with vacuum-assisted wound healing without aganocide or aganocide alone", "setting": "Example 1: 0.1% solution, 1 second instilling, 1 minute holding, about 24 cycles per 48 hours", "result": "superior wound healing results"}, {"measurement": "wound healing results of the combination treatment regimen compared with vacuum-assisted wound healing without aganocide or aganocide alone", "setting": "Example 2: 0.1% solution, 5 second instilling, 30 minute holding, about 19 cycles per 48 hours", "result": "superior wound healing results"}]}
